Key:
[1] = target: BRD4 (Homo sapiens (Human), UniProt O60885); test: TR-FRET in-vitro binding assay for BRD4; conditions: 45 nM His-Brd4(44-477), acetyl-histone H4 (AcK 5, 8, 12, 16) peptide
Summary of the method: (§1)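 Incubation at 30° C lasted 35 min, followed by TR-FRET measurement; each compound was tested as 8 single-point concentrations.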

[2] = test system: THP-1; test: Cell growth inhibition assay (CellTiter-Glo), THP-1; format: cell-based, human; conditions: THP-1 cells, 4 days; for GI50: Homo sapiens, 96 h, half-maximal growth inhibition; for THP-1 TGI: total growth inhibition
Summary of the method: (§2)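 Seed cells in their own media; add compound as 3-fold dilutions from 10 μM (0.1% DMSO final). Incubate 4 days at 37 °C, 5% CO2, then add CTG and read luminescence. Subtract no-cell background, correct to a day 0 plate, and fit IC50 and TGI.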

[3] = target: BRD3 (Homo sapiens (Human), UniProt Q15059); test: TR-FRET in-vitro binding assay for BRD3; conditions: 45 nM His-Brd3(20-477), acetyl-histone H4 (AcK 5, 8, 12, 16) peptide
Sequence of BRD3 (Q15059 20-477): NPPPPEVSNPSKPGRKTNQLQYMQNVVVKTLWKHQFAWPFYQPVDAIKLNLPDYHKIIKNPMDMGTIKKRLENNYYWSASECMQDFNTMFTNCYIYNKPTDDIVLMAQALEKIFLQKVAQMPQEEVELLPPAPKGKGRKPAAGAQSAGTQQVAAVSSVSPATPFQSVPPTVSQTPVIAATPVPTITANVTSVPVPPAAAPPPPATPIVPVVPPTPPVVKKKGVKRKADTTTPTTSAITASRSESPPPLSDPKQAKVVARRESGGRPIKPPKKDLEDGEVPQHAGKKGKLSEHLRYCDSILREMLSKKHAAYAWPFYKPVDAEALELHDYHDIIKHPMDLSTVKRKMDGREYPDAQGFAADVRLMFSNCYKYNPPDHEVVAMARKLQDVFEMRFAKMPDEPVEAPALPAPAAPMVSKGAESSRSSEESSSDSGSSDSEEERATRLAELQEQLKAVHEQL
Summary of the method: as §1

[4] = test system: K-562; test: Cell growth inhibition assay (CellTiter-Glo), K-562; format: cell-based, human; conditions: K-562 cells, 4 days; for GI50: Homo sapiens, K562, 96 h, half-maximal growth inhibition; for K-562 TGI: total growth inhibition
Summary of the method: as §2

[5] = target: BRD2 (Homo sapiens (Human), UniProt P25440); test: TR-FRET in-vitro binding assay for BRD2; conditions: 45 nM His-Brd2(60-472), acetyl-histone H4 (AcK 5, 8, 12, 16) peptide
Sequence of BRD2 (P25440 60-472): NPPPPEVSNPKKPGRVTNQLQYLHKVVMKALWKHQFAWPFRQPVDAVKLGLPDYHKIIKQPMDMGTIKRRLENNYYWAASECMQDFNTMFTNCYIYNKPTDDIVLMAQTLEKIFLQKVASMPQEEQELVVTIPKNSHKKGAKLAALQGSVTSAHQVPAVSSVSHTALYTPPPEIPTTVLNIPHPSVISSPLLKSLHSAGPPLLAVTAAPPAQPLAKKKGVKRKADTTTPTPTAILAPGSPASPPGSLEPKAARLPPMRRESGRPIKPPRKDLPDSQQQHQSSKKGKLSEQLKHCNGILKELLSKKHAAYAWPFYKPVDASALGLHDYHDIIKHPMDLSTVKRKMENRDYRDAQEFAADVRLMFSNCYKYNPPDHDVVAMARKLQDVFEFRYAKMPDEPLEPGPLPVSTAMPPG
Summary of the method: as §1

[6] = target: CREBBP (Homo sapiens (Human), UniProt Q92793); test: AlphaScreen in-vitro binding assay for CREBBP; conditions: 324 nM His-CREBBP (1081-1197), acetyl-histone H4 (AcK 5, 8, 12) peptide
Sequence of CREBBP (Q92793 1081-1197): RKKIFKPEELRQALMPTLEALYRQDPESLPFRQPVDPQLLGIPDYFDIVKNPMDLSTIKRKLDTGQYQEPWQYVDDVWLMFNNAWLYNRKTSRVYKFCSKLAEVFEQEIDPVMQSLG
Summary of the method: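 IC50 values were derived by non-linear regression of percent inhibition across 8 compound concentrations. Protein was His-tagged CREBBP bromodomain (1081-1197), peptide acetyl-histone H4 (AcK 5, 8, 12), in HEPES pH 7.5 buffer. Read-out was AlphaScreen with Ni-chelate acceptor and streptavidin donor beads, 35 min at 30° C then 60 min at RT.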

[7] = test system: MV-4-11; test: Cell growth inhibition assay (CellTiter-Glo), MV-4-11; format: cell-based, human; conditions: MV-4-11 cells, 4 days; for GI50: Homo sapiens, MV4-11, 96 h, half-maximal growth inhibition; for MV-4-11 TGI: total growth inhibition
Summary of the method: as §2

IC50 [1]	GI50 [2]	IC50 [3]	GI50 [4]	IC50 [5]	IC50 [6]	GI50 [7]	Compound	THP-1 TGI [2]	K-562 TGI [4]	MV-4-11 TGI [7]
357 nM	598 nM	210 nM	1910 nM	230 nM	10.7 µM	402 nM	Cn1ccc2c1C(c1ccc(C#N)cc1)N(c1cc(Cl)c(=O)n(C)c1)C2=O (stereo not shown) [Example 89, 4-(5-(5-chloro-1-methyl-6-oxo-1,6-dihydropyridin-3-yl)-1-methyl-4-oxo-1,4,5,6-tetrahydropyrrolo[3,4-b]pyrrol-6-yl)benzonitrile]	2.015 µM	>10 µM	0.785 µM
267 nM	218 nM	196 nM	618 nM	265 nM	1.45 µM	222 nM	Cn1ccc2c1C(c1ccc(Cl)c(F)c1)N(c1cc(Cl)c(=O)n(C)c1)C2=O (stereo not shown) [Example 90, 5-(5-chloro-1-methyl-6-oxo-1,6-dihydropyridin-3-yl)-6-(4-chloro-3-fluorophenyl)-1-methyl-5,6-dihydropyrrolo[3,4-b]pyrrol-4(1H)-one]	0.4465 µM	>10 µM	0.4075 µM
13 nM	3.12 nM	14 nM	27.4 nM	15 nM	> 37 µM	2.54 nM	CNC(=O)c1cn(C)c2c1C(=O)N(c1cc(C)c3nnn(C)c3n1)C2c1ccc(Cl)cc1 (stereo not shown) [Example 93, 6-(4-chlorophenyl)-5-(3,7-dimethyl-3H-[1,2,3]triazolo[4,5-b]pyridin-5-yl)-N,1-dimethyl-4-oxo-1,4,5,6-tetrahydropyrrolo[3,4-b]pyrrole-3-carboxamide]	0.01124 µM	>10 µM	0.01049 µM
12 nM	12.4 nM	13 nM	34.6 nM	17 nM	> 37 µM	8.19 nM	Cc1cc(N2C(=O)c3c(C(=O)N(C)C)cn(C)c3C2c2ccc(Cl)cc2)nc2c1nnn2C (stereo not shown) [Example 94, 6-(4-chlorophenyl)-5-(3,7-dimethyl-3H-[1,2,3]triazolo[4,5-b]pyridin-5-yl)-N,N,1-trimethyl-4-oxo-1,4,5,6-tetrahydropyrrolo[3,4-b]pyrrole-3-carboxamide]	0.02985 µM	>10 µM	0.02195 µM
16 nM	34.9 nM	26 nM	123 nM	34 nM	> 37 µM	31.4 nM	Cc1cc(N2C(=O)c3c(NC(=O)OC(C)(C)C)cn(C)c3C2c2ccc(Cl)cc2)nc2c1nnn2C (stereo not shown) [Example 95, Tert-butyl (6-(4-chlorophenyl)-5-(3,7-dimethyl-3H-[1,2,3]triazolo[4,5-b]pyridin-5-yl)-1-methyl-4-oxo-1,4,5,6-tetrahydropyrrolo[3,4-b]pyrrol-3-yl)carbamate]	0.0815 µM	>10 µM	0.0631 µM
16 nM	11.2 nM	17 nM	32.8 nM	36 nM	> 37 µM	10.9 nM	CC(=O)Nc1cn(C)c2c1C(=O)N(c1cc(C)c3nnn(C)c3n1)C2c1ccc(Cl)cc1 (stereo not shown) [Example 96, N-(6-(4-chlorophenyl)-5-(3,7-dimethyl-3H-[1,2,3]triazolo[4,5-b]pyridin-5-yl)-1-methyl-4-oxo-1,4,5,6-tetrahydropyrrolo[3,4-b]pyrrol-3-yl)acetamide]	0.02125 µM	>10 µM	0.0212 µM
35 nM	17.9 nM	< 11 nM	48.7 nM	15 nM	> 37 µM	13.7 nM	CCOC(=O)Nc1cn(C)c2c1C(=O)N(c1cc(C)c3nnn(C)c3n1)C2c1ccc(Cl)cc1 (stereo not shown) [Example 97, Ethyl (6-(4-chlorophenyl)-5-(3,7-dimethyl-3H-[1,2,3]triazolo[4,5-b]pyridin-5-yl)-1-methyl-4-oxo-1,4,5,6-tetrahydropyrrolo[3,4-b]pyrrol-3-yl)carbamate]	0.03345 µM	>10 µM	0.02495 µM
< 11 nM	27.8 nM	13 nM	138 nM	16 nM	> 37 µM	13.6 nM	CNC(=O)c1cn(C)c2c1C(=O)N(c1cc(C)c3nnc(C)n3c1)C2c1ccc(Cl)cc1 (stereo not shown) [Example 99, 6-(4-chlorophenyl)-5-(3,8-dimethyl-[1,2,4]triazolo[4,3-a]pyridin-6-yl)-N,1-dimethyl-4-oxo-1,4,5,6-tetrahydropyrrolo[3,4-b]pyrrole-3-carboxamide]	0.096 µM	>10 µM	0.0383 µM
30 nM	518 nM	47 nM	2040 nM	40 nM	> 37 µM	128 nM	Cc1cc(N2C(=O)c3c(C(=O)N(C)C)cn(C)c3C2c2ccc(Cl)cc2)cn2c(C)nnc12 (stereo not shown) [Example 100, 6-(4-chlorophenyl)-5-(3,8-dimethyl-[1,2,4]triazolo[4,3-a]pyridin-6-yl)-N,N,1-trimethyl-4-oxo-1,4,5,6-tetrahydropyrrolo[3,4-b]pyrrole-3-carboxamide]	2.135 µM	>10 µM	0.3685 µM
41 nM	150 nM	42 nM	1300 nM	54 nM	30.6 µM	57.4 nM	Cc1cc(N2C(=O)c3c(C(N)=O)cn(C)c3C2c2ccc(Cl)cc2)cn2c(C)nnc12 (stereo not shown) [Example 101, 6-(4-chlorophenyl)-5-(3,8-dimethyl-[1,2,4]triazolo[4,3-a]pyridin-6-yl)-1-methyl-4-oxo-1,4,5,6-tetrahydropyrrolo[3,4-b]pyrrole-3-carboxamide]	0.4505 µM	>10 µM	0.1605 µM
32 nM	53.3 nM	34 nM	185 nM	44 nM	3.2 µM	37.3 nM	Cc1cc(N2C(=O)c3c(NC(=O)OC(C)(C)C)cn(C)c3C2c2ccc(Cl)cc2)cn2c(C)nnc12 (stereo not shown) [Example 102, Tert-butyl (6-(4-chlorophenyl)-5-(3,8-dimethyl-[1,2,4]triazolo[4,3-a]pyridin-6-yl)-1-methyl-4-oxo-1,4,5,6-tetrahydropyrrolo[3,4-b]pyrrol-3-yl)carbamate]	0.118 µM	>10 µM	0.0904 µM
21 nM	6.31 nM	21 nM	36.5 nM	35 nM	14.8 µM	2.98 nM	Cc1cc(N2C(=O)c3c(C4CC4)cn(C4COC4)c3C2c2ccc(Cl)cc2)nc2c1nnn2C (stereo not shown) [Example 104, 6-(4-chlorophenyl)-3-cyclopropyl-5-(3,7-dimethyl-3H-[1,2,3]triazolo[4,5-b]pyridin-5-yl)-1-(oxetan-3-yl)-5,6-dihydropyrrolo[3,4-b]pyrrol-4(1H)-one]	0.0184 µM	>10 µM	0.011 µM
< 11 nM	0.674 nM	12 nM	4.76 nM	13 nM	14.1 µM	0.341 nM	CC(=O)N1CC(n2cc(C3CC3)c3c2C(c2ccc(Cl)cc2)N(c2cc(C)c4nnn(C)c4n2)C3=O)C1 (stereo not shown) [Example 105, 1-(1-acetylazetidin-3-yl)-6-(4-chlorophenyl)-3-cyclopropyl-5-(3,7-dimethyl-3H-[1,2,3]triazolo[4,5-b]pyridin-5-yl)-5,6-dihydropyrrolo[3,4-b]pyrrol-4(1H)-one]	0.00238 µM	>10 µM	0.00243 µM

— patent US9550796B2, “Pyrrolopyrrolone derivatives and their use as BET inhibitors” (NOVARTIS AG, priority 2013, dated 2017)
